# PubChem BioAssay (NCI)
# Where “and” joins values, the source holds several entries; their conditions need not be identical. Equal values may be shown once.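 Results reflect a 48-hour exposure of cells in 96-well plates to compound at five concentrations. Here, GI50 denotes the concentration required for 50% inhibition of growth. The concentration for full growth arrest is given as TGI.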
# Experiments:
# Assay in all cases: DTP human tumour cell line panel, 48 h
# HL-60(TB) leukemia = tested on: HL-60(TB) leukemia
# KM12 colon = tested on: KM12 colon
# KM20L2 colon = tested on: KM20L2 colon
# M19-MEL melanoma = tested on: M19-MEL melanoma
# MALME-3M melanoma = tested on: MALME-3M melanoma
# MDA-MB-435 = tested on: MDA-MB-435
# PC-3 prostate = tested on: PC-3 prostate
# RXF 393 renal = tested on: RXF 393 renal
# SF-539 CNS = tested on: SF-539 CNS
# UACC-257 melanoma = tested on: UACC-257 melanoma
SMILES,GI50 (HL-60(TB) leukemia) [µM],GI50 (KM12 colon) [µM],TGI (KM12 colon),TGI (KM20L2 colon) [µM],TGI (M19-MEL melanoma) [µM],TGI (MALME-3M melanoma),GI50 (MDA-MB-435) [µM],TGI (MDA-MB-435),TGI (PC-3 prostate),TGI (RXF 393 renal),TGI (SF-539 CNS),GI50 (UACC-257 melanoma) [µM],TGI (UACC-257 melanoma),TGI (HL-60(TB) leukemia) [µM],GI50 (SF-539 CNS) [µM],GI50 (KM20L2 colon) [µM],GI50 (M19-MEL melanoma) [µM],GI50 (MALME-3M melanoma) [µM],GI50 (RXF 393 renal) [µM]
O=C1c2c(O)ccc(O)c2C(=O)c2c(NCCNCCO)ccc(NCCNCCO)c21,0.0127,0.459,2.58 µM and 2.59 µM and 3.9 µM,8.09,0.925,1.45 µM and 0.955 µM and 0.974 µM,0.297,1.65 µM and 1.07 µM and 1.82 µM,1.29 µM and 1.45 µM and 1.55 µM,0.307 µM and 0.368 µM and 0.493 µM,0.0705 µM and 0.699 µM and 0.244 µM,0.82,4.61 µM and 6.14 µM and 7.32 µM,–,–,–,–,–,–
O=C(NOC(=O)c1ccc([N+](=O)[O-])cc1)c1ccc(Cl)cc1,–,–,> 100 µM,> 100,> 100,> 100 µM,–,–,–,> 100 µM,> 100 µM,–,> 100 µM,34.3,–,–,–,–,–
COC(=O)C1=C(C(=O)OC)C(C(=O)OC)C(C(=O)OC)C(C(=O)OC)(C(=O)OC)C(C(=O)OC)=C1C(=O)OC (centres undefined),–,–,31.3 µM,35.9,25.6,15.7 µM,–,37.5 µM,30.1 µM,16.7 µM,36.7 µM,–,27 µM,4.95,–,–,–,–,–
CC1(C)Oc2ccccc2N2O[C@@H]3C(=O)N(c4ccccc4)C(=O)[C@@H]3C21c1ccccc1 (some centres undefined),–,–,> 100 µM,> 100,72.5,42.5 µM,–,–,–,60.8 µM,31.7 µM,–,78.7 µM,–,–,–,–,–,–
O=c1ncccn1C1OC(CO)C(O)C1F (centres undefined),–,> 100,> 100 µM,> 100,> 100,> 100 µM,–,–,–,> 100 µM,> 100 µM,–,> 100 µM,> 100,> 100,–,–,–,–
COc1cc(/C=C2/C(=O)N(C(=O)c3ccccc3O)N=C2C)ccc1O,–,–,> 100 µM,> 100,> 100,> 100 µM,–,> 100 µM,> 100 µM,–,–,–,> 100 µM,> 52.9,–,–,–,–,–
COc1cc(-c2nn3c(=O)n(-c4ccc(Cl)cc4)c(=O)nc3s2)cc(OC)c1OC,> 100,> 50,> 100 µM,> 100,> 100,> 100 µM,–,–,–,40.7 µM and 21.6 µM,50 µM and 45.6 µM,–,> 100 µM,> 100,32.9,> 50,> 50,> 50,14.7
CN1C(=O)CC2(C)c3cc(C=O)ccc3N(C)C12 (centres undefined),–,–,> 100 µM,> 100,> 100,> 100 µM,–,–,–,> 100 µM,> 100 µM,–,> 100 µM,–,–,–,–,–,–
O=C1Cc2ccccc2CCc2ccccc21,–,–,> 100 µM,> 100,> 100,> 100 µM,–,–,–,> 100 µM,> 100 µM,–,> 100 µM,> 100,–,–,–,–,–
CCC1(Cl)C(=O)NC(=O)N(C2CC(O)C(CO)O2)C1N=[N+]=[N-] (centres undefined),–,–,–,> 100,> 100,> 100 µM,–,–,–,> 100 µM,> 100 µM,–,> 100 µM,> 100,–,–,–,–,–
BrC(Br)([P+](c1ccccc1)(c1ccccc1)c1ccccc1)[P+](c1ccccc1)(c1ccccc1)c1ccccc1,–,–,–,86.2,38.4,26.2 µM,–,–,–,23.6 µM,27.8 µM,–,50.5 µM,54.3,–,–,–,–,–
Nc1ccc2c(SCC(=O)Nc3ccccc3-c3ccccc3NC(=O)CSc3c4ccccc4nc4cc(N)ccc34)c3ccccc3nc2c1,–,–,65.8 µM,> 93.5,70.5,56 µM,–,> 73.5 µM,54.6 µM,63.5 µM,64.8 µM,–,71.9 µM,36.6,–,–,–,–,–
C=C1C(=O)C23CC1CCC2C12CO[C@@]3(O)[C@@H](O)C1C(C)(C)C=CC2=O (some centres undefined),0.434,–,29.5 µM,4.39,1.72,–,–,11.1 µM,7.53 µM,1.34 µM,1.8 µM and 13.4 µM,2.49,1.33 µM and 7.8 µM,–,4.43,–,–,6.11,–
CN1C=C(C(N)=O)C2CC(O)[C@@](NC(=O)CS(N)(=O)=O)(C(=O)O)C2C1 (some centres undefined),–,–,49.8 µM,> 40.9,15.8,20.3 µM,–,–,–,4.16 µM,4.41 µM,–,27 µM,> 100,–,–,–,–,–
c1cc2ccc1C1NCCCN1CCN1CCCNC1c1ccc(cc1)C1NCCCN1CCN1CCCNC21 (centres undefined),–,–,> 100 µM,> 100,> 100,> 100 µM,–,–,–,–,> 100 µM,–,> 100 µM,67.8,–,–,–,–,–
OCCN(CCO)c1ncnc2c1sc(=S)n2-c1ccccc1,–,–,> 100 µM,> 100,> 100,> 100 µM,–,–,–,> 100 µM,> 100 µM,–,> 100 µM,> 100,–,–,–,–,–
CC12O[Te]34OC1(C)C(C)(O3)C2(C)O4,–,–,27.4 µM,87.5,25.5,32.7 µM,–,–,–,27 µM,28.2 µM,–,33.6 µM,–,–,–,–,–,–
C=C1c2ccccc2N(S(=O)(=O)c2ccc(C)cc2)C12CCCCC2,–,–,> 100 µM,> 100,> 100,> 100 µM,–,–,–,> 100 µM,> 100 µM,–,> 100 µM,> 100,–,–,–,–,–
NC(=O)c1ncn(C2OC(CO)C(O)C2O)c1NC(=S)NC(=O)c1ccccc1 (centres undefined),–,–,> 100 µM,> 100,> 100,> 100 µM,–,–,–,> 100 µM,> 100 µM,–,> 100 µM,> 100,–,–,–,–,–
CCOC(=O)c1cc(C(=O)O)c(=O)n2c1[nH]c1ccccc12,–,–,> 100 µM,> 100,> 100,> 100 µM,–,–,–,> 100 µM,> 100 µM,–,> 100 µM,> 100,–,–,–,–,–
O=C1OC(c2ccc(Cl)c3ccccc23)c2ccccc21 (centres undefined),–,–,> 100 µM,> 100,> 100,> 100 µM,–,–,–,> 100 µM,> 100 µM,–,> 100 µM,> 100,–,–,–,–,–
